{"source": "patent US20170122958A1", "about": "“Enzymes Functional Probes” (University of Dundee, priority 2013, published 2017)", "type_in_all_cases": "binding", "key": {"[1]": {"molecular_target": "T1, brd4(1)L094A (Homo sapiens, UniProt O60885, L94A)", "T1 construct": "Plasmids of the eight single BET bromodomain constructs Brd2(1), Brd2(2), Brd3(1), Brd3(2), Brd4(1), Brd4(2), Brdt(1) and Brdt(2); His6 (N); made in house; host or cells: E. coli BL21(DE3)", "assay": "DSF thermal shift", "conditions": "mutant"}, "[2]": {"molecular_target": "T2, Brd4(2) (Homo sapiens, UniProt O60885)", "T2 construct": "Plasmids of the eight single BET bromodomain constructs Brd2(1), Brd2(2), Brd3(1), Brd3(2), Brd4(1), Brd4(2), Brdt(1) and Brdt(2); His6 (N); made in house; host or cells: E. coli BL21(DE3)", "assay": "DSF thermal shift", "conditions": "wild type"}, "[3]": {"molecular_target": "T3, Brd4(1) (Homo sapiens, UniProt O60885)", "T3 construct": "Plasmids of the eight single BET bromodomain constructs Brd2(1), Brd2(2), Brd3(1), Brd3(2), Brd4(1), Brd4(2), Brdt(1) and Brdt(2); His6 (N); made in house; host or cells: E. coli BL21(DE3)", "assay": "DSF thermal shift", "conditions": "wild type"}, "[4]": {"molecular_target": "T4, brd4(2)L387A (Homo sapiens, UniProt O60885, L387A)", "T4 construct": "Plasmids of the eight single BET bromodomain constructs Brd2(1), Brd2(2), Brd3(1), Brd3(2), Brd4(1), Brd4(2), Brdt(1) and Brdt(2); His6 (N); made in house; host or cells: E. coli BL21(DE3)", "assay": "DSF thermal shift", "conditions": "mutant"}, "[5]": {"molecular_target": "Brd2(1)*(Leu110-Ala) (Homo sapiens, UniProt P25440, L110A)", "sequence (P25440 74-180 L110A limits assumed)": "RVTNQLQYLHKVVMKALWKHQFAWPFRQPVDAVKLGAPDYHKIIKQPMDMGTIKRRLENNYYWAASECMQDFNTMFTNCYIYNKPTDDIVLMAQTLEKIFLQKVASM", "assay": "ITC reverse titration of protein into compound", "set-up": "Plasmids of the eight single BET bromodomain constructs Brd2(1), Brd2(2), Brd3(1), Brd3(2), Brd4(1), Brd4(2), Brdt(1) and Brdt(2); His6 (N); made in house; host or cells: E. coli BL21(DE3)", "conditions": "for ΔH Brd2(1)* (Leu110-Ala): ITC 25° C.; for Selectivity factor Kd WT/Kd Leu/Ala: 30° C.", "description": "(§1) ITC experiments were carried out on a ITC200 instrument from MicroCal™ Experiments were conducted at 3 different temperatures 15° C., 25° C. and 30° C., while stirring at 1000 rpm. Buffers of proteins, peptide and compounds were matched to 20 mM HEPES pH 7.5 at 25° C. and 100 mM NaCl. Frozen protein was buffer exchanged as described for the DSF experiments. Each titration comprised 1 initial injection of 0.4 μl lasting 0.8 s, followed by 19 injections of 2 μl lasting 4 s each at 2 min intervals. The initial injection was discarded during data analysis. Standard and reverse titrations were conducted depending on the binding partners.\n(§2) Reverse titrations were conducted to test the binding of the known ligands and the novel chemical probes to the wild types and the mutants. Experiments were carried out either at 25° C. or 30° C. […] In cases where the compound was solubilized in dimethyl sulfoxide, DMSO concentration was adjusted to 1% both in the syringe and in the cell.\n(§3) All the data was fitted to a single binding site model using the Microcal LLC ITC200 Origin software provided by the manufacturer to yield enthalpies of binding (ΔH) and binding constants (Kas). Further thermodynamic parameters were calculated from these values (changes in entropy ΔS, changes in free energy AG and dissociation constants (Kds))."}, "[6]": {"molecular_target": "Brd2(2)*(Leu383-Ala) (Homo sapiens, UniProt P25440, L383A)", "sequence (P25440 344-453 L383A limits assumed)": "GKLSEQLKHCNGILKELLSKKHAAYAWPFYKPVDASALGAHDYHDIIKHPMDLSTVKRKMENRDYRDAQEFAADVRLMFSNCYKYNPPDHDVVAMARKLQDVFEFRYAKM", "assay": "ITC reverse titration of protein into compound", "set-up": "Plasmids of the eight single BET bromodomain constructs Brd2(1), Brd2(2), Brd3(1), Brd3(2), Brd4(1), Brd4(2), Brdt(1) and Brdt(2); His6 (N); made in house; host or cells: E. coli BL21(DE3)", "conditions": "for ΔH Brd2(2)* (Leu383-Ala) / Kd: ITC 25° C.; for Kd: Kd Brd2(2)* (Leu383-Ala); for Selectivity factor Kd WT/Kd Leu/Ala: 30° C.", "description": "as §1, §2, §3"}}, "note": "Where “and” joins values, the source holds several entries; their conditions need not be identical. Equal entries are not always repeated."}
{"smiles": "CC[C@@H](C(=O)OC)[C@@H]1N=C(c2ccc(Cl)cc2)c2cc(OC)ccc2-n2c(C)nnc21", "note": "(racemic) [Compound 11, (+−)-methyl (R)-2-((S)-6-(4-chlorophenyl)-8-methoxy-1-methyl-4H-benzo[f][1,2,4]triazolo[4,3-a][1,4]diazepin-4-yl)butanoate]", "values": [{"measurement": "ΔTm Brd4(1)* (L094A)", "setting": "[1]", "result": "10.0 ± 0.2", "unit": "K"}, {"measurement": "ΔTm Brd4(2)", "setting": "[2]", "result": "1.5 ± 0.0", "unit": "K"}, {"measurement": "ΔTm Brd4(1)", "setting": "[3]", "result": "1.5 ± 0.4", "unit": "K"}, {"measurement": "ΔTm Brd4(2)* (L387A)", "setting": "[4]", "result": "7.0 ± 0.1", "unit": "K"}, {"measurement": "Kd", "setting": "[5]", "result": "42.7 ± 7.8", "unit": "nM"}, {"measurement": "ΔH Brd2(1)* (Leu110-Ala)", "setting": "[5]", "result": "−16220 ± 130.9", "unit": "cal/mol"}, {"measurement": "Selectivity factor Kd WT/Kd Leu/Ala", "setting": "[5]; brd2(1)L110A vs WT brd2(1)", "result": 123}, {"measurement": "Selectivity factor Kd WT/Kd Leu/Ala", "setting": "[5]; brd2(1)L110A vs WT brd2(2)", "result": 236}, {"measurement": "Selectivity factor Kd WT/Kd Leu/Ala", "setting": "[5]; brd2(1)L110A vs WT brd3(1)", "result": 96}, {"measurement": "Selectivity factor Kd WT/Kd Leu/Ala", "setting": "[5]; brd2(1)L110A vs WT brd3(2)", "result": 101}, {"measurement": "Selectivity factor Kd WT/Kd Leu/Ala", "setting": "[5]; brd2(1)L110A vs WT brd4(1)", "result": 174}, {"measurement": "Selectivity factor Kd WT/Kd Leu/Ala", "setting": "[5]; brd2(1)L110A vs WT brd4(2)", "result": 138}, {"measurement": "Selectivity factor Kd WT/Kd Leu/Ala", "setting": "[5]; brd2(1)L110A vs WT brdt(1)", "result": 117}, {"measurement": "Selectivity factor Kd WT/Kd Leu/Ala", "setting": "[5]; brd2(1)L110A vs WT brdt(2)", "result": 167}, {"measurement": "Selectivity against all other bromodomains", "setting": "[5]; mutated Brd2(1) vs all other (wild type) bromodomains", "result": "≥ 96", "unit": "fold"}, {"measurement": "ΔH Brd2(2)* (Leu383-Ala)", "setting": "[6]", "result": "-10.71 ± 0.1028", "unit": "kcal/mol"}, {"measurement": "Kd", "setting": "[6]", "result": "21.7 ± 5.6", "unit": "nM"}, {"measurement": "Selectivity factor Kd WT/Kd Leu/Ala", "setting": "[6]; brd2(2)L383A vs WT brd2(1)", "result": 105}, {"measurement": "Selectivity factor Kd WT/Kd Leu/Ala", "setting": "[6]; brd2(2)L383A vs WT brd2(2)", "result": 203}, {"measurement": "Selectivity factor Kd WT/Kd Leu/Ala", "setting": "[6]; brd2(2)L383A vs WT brd3(1)", "result": 82}, {"measurement": "Selectivity factor Kd WT/Kd Leu/Ala", "setting": "[6]; brd2(2)L383A vs WT brd3(2)", "result": 87}, {"measurement": "Selectivity factor Kd WT/Kd Leu/Ala", "setting": "[6]; brd2(2)L383A vs WT brd4(1)", "result": 150}, {"measurement": "Selectivity factor Kd WT/Kd Leu/Ala", "setting": "[6]; brd2(2)L383A vs WT brd4(2)", "result": 118}, {"measurement": "Selectivity factor Kd WT/Kd Leu/Ala", "setting": "[6]; brd2(2)L383A vs WT brdt(1)", "result": 101}, {"measurement": "Selectivity factor Kd WT/Kd Leu/Ala", "setting": "[6]; brd2(2)L383A vs WT brdt(2)", "result": 144}]}
{"smiles": "COC(=O)[C@H](C)[C@@H]1N=C(c2ccc(Cl)cc2)c2cc(OC)ccc2-n2c(C)nnc21", "note": "(racemic) [Compound 7, (+−)-methyl (R)-2-((S)-6-(4-chlorophenyl)-8-methoxy-1-methyl-4H-benzo[f][1,2,4]triazolo[4,3-a][1,4]diazepin-4-yl)propanoate]", "values": [{"measurement": "Kd", "setting": "[5]", "result": 17, "unit": "nM"}, {"measurement": "ΔH Brd2(1)* (Leu110-Ala)", "setting": "[5]", "result": "−16780 ± 161.4", "unit": "cal/mol"}, {"measurement": "ΔH Brd2(2)* (Leu383-Ala)", "setting": "[6]", "result": "-12.61 ± 0.08606", "unit": "kcal/mol"}, {"measurement": "Kd", "setting": "[6]", "result": "22 nM and 22.3 nM"}]}
